Laboratory results: US9896441B2 (Lycera Corporation, priority 2014, dated 2018)

Columns and labels:
[1] = biological target: T1, RORγ-LBD (Homo sapiens, UniProt P51449); test: RORγ-Ligand Binding Domain (LBD) TR-FRET Assay; type: biochemical; settings: for TR-FRET Assay Max Response: maximum response;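 as to TR-FRET Assay Max Response: 665/615 nm signal ratio set to 100 without ursolic acid or test compound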
T1 construct: made in house; host or cells: SF9 cells (baculovirus); used as diluted lysate
T1 sequence (P51449 269-508 limits assumed): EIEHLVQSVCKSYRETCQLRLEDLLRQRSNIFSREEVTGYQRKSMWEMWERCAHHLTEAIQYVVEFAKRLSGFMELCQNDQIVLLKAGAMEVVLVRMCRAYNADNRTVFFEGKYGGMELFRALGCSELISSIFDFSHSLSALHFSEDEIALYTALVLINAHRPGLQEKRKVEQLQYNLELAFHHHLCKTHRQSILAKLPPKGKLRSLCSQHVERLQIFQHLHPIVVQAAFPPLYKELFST
Method in brief: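 TR-FRET read-out using a biotin-tagged SRC1 coactivator LXXLL peptide (200 nM final), with the antagonist ursolic acid present at 2 μM final. Receptor is His-tagged LBD expressed in SF9 cells, ~3 nM final in pH 7.0 Tris/KCl/EDTA/DTT/BSA buffer; compounds in 1% DMSO final.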

[2] = biological target: T2, Gal4-RORγ-LBD (Homo sapiens, UniProt P51449); test: Gal4-RORγ Luciferase Reporter Assay in HEK-293T Cells; type: cell-based; settings: HEK-293 cells; for Gal4-RORγ Assay Max Response: maximum response
T2 construct: expressed in transfected cells
T2 sequence (P51449 269-508 limits assumed): T1 sequence (P51449 269-508 limits assumed)
Method in brief: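 Max Response was taken as the upper plateau of a 4-parameter logistic fit of luciferase signal, normalized to 100 for wells without ursolic acid or compound. Transiently Gal4-RORγ-LBD/Gal4-luc transfected HEK-293 cells carrying […] ursolic acid were incubated with test compounds (0.2% DMSO) overnight at 37 °C and read with One-Glo.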

[3] = luciferase reporter, with ursolic acid
[4] = luciferase reporter, in presence of ursolic acid
[5] = with 2 μM ursolic acid (RORγ antagonist), highest test concentration 10 μM
[6] = ursolic acid present, luciferase readout

Row | EC50 ([1]; RORγ-LBD TR-FRET) | EC50 [2, 3] | EC50 ([1]; RORγ-LBD TR-FRET assay) | EC50 [2, 4] | Compound | TR-FRET Assay Max Response ([1]; RORγ-LBD TR-FRET assay) | Gal4-RORγ Assay Max Response [2, 4] | further results
1 | < 500 nM | 500 to 5000 nM |  |  | COC(=O)CC[C@H]1CN(S(=O)(=O)c2cc(C(F)(F)F)cnc2OCCO)c2cc(C=C(C)C)ccc2O1 [Example 95AD, methyl (S)-3-(4-((2-(2-hydroxyethoxy)-5-(trifluoromethyl)pyridin-3-yl)sulfonyl)-6-(2-methylprop-1-en-1-yl)-3,4-dihydro-2H-benzo[b][1,4]oxazin-2-yl)propanoic acid] |  |  | 
2 |  |  | < 500 nM | 500 to 5000 nM | CC(C)(CC1CC(S(=O)(=O)c2cccc(C(F)(F)F)c2)c2cc(OCc3c(F)cccc3Cl)ccc2O1)C(=O)O (stereo not drawn) [Example 186E, 3-(6-((2-chloro-6-fluorobenzyl)oxy)-4-((3-(trifluoromethyl)phenyl)-sulfonyl)chroman-2-yl)-2,2-dimethylpropanoic acid] | ** (a value in the range of greater than 90 to 150) | ** (a value in the range of greater than 90 to 150) | 
3 | < 500 nM | 500 to 5000 nM |  |  | O=C(O)CC[C@H]1CN(S(=O)(=O)c2cc(C(F)(F)F)cnc2OCCO)c2cc(C=C3CCCCC3)ccc2O1 [Example 95C, (S)-3-(6-(cyclohexylidenemethyl)-4-((2-(2-hydroxyethoxy)-5-(trifluoromethyl)pyridin-3-yl)sulfonyl)-3,4-dihydro-2H-benzo[b][1,4]oxazin-2-yl)propanoic acid] |  |  | 
4 | < 500 nM | < 500 nM |  |  | O=C(O)CC[C@H]1CN(S(=O)(=O)c2cccc(C(F)(F)F)c2)c2cc(C=C3CCC(F)(F)CC3)ccc2O1 [Example 95L, (S)-3-(6-((4,4-difluorocyclo-hexylidene)methyl)-4-((3-(trifluoromethyl)phenyl)sulfonyl)-3,4-dihydro-2H-benzo[b][1,4]oxazin-2-yl)propanoic acid] |  |  | 
5 |  |  | < 500 nM | < 500 nM | COC(=O)CO[C@@H]1Cc2ccc(/C=C(\C)c3c(F)cccc3Cl)cc2N(S(=O)(=O)c2cccc(C(F)(F)F)c2)C1 [Example 173D, methyl (R,E)-2-((7-(2-(2-chloro-6-fluorophenyl)prop-1-en-1-yl)-1-((3-(trifluoromethyl)-phenyl)sulfonyl)-1,2,3,4-tetrahydroquinolin-3-yl)oxy)acetate] | ** (a value in the range of greater than 90 to 150) | ** (a value in the range of greater than 90 to 150) | 
6 |  |  | < 500 nM | < 500 nM | CC(O[C@@H]1Cc2ccc(OCc3c(F)cccc3Cl)cc2N(S(=O)(=O)c2cccc(C(F)(F)F)c2)C1)C(=O)O (stereo partly drawn) [Example 173C, 2-(((R)-7-((2-chloro-6-fluorobenzyl)oxy)-1-((3-(trifluoromethyl)phenyl)sulfonyl)-1,2,3,4-tetrahydroquinolin-3-yl)oxy)propanoic acid] | ** (a value in the range of greater than 90 to 150) | ** (a value in the range of greater than 90 to 150) | 
7 |  |  | < 500 nM | 500 to 5000 nM | C/C(=C\c1ccc2c(c1)N(S(=O)(=O)c1cccc(C(F)(F)F)c1)C[C@H](CCC(=O)NCC(=O)O)O2)c1c(F)cccc1Cl [Example 129E, (S,E)-(3-(6-(2-(2-chloro-6-fluorophenyl)prop-1-en-1-yl)-4-((3-(trifluoro-methyl)phenyl)sulfonyl)-3,4-dihydro-2H-benzo[b][1,4]oxazin-2-yl)propanoyl)glycine] | **** (a value greater than 200) | ** (a value in the range of greater than 90 to 150) | 

The remaining lines, values behind:

Row | Compound | EC50 ([1]; RORγ-LBD TR-FRET) | EC50 [2, 3] | EC50 ([1]; RORγ-LBD TR-FRET assay) | EC50 [2, 4] | TR-FRET Assay Max Response ([1]; RORγ-LBD TR-FRET assay) | Gal4-RORγ Assay Max Response [2, 4] | further results
8 | CCOc1nn(CC)cc1S(=O)(=O)N1C[C@H](CCC(=O)OC)Oc2ccc(/C=C/c3c(Cl)cccc3C(C)(F)F)cc21 [Example 89FF, methyl (S,E)-3-(6-(2-chloro-6-(1,1-difluoroethyl)styryl)-4-((3-ethoxy-1-ethyl-1H-pyrazol-4-yl)sulfonyl)-3,4-dihydro-2H-benzo[b][1,4]oxazin-2-yl)propanoate] | < 500 nM | 500 to 5000 nM |  |  |  |  | 
9 | CCOc1ncc(C(F)(F)F)cc1S(=O)(=O)N1C[C@H](CCC(=O)OC)Oc2ccc(/C=C/c3c(F)cccc3Cl)cc21 [Example 89DV, methyl (S,E)-3-(6-(2-chloro-6-fluorostyryl)-4-((2-ethoxy-5-(trifluoromethyl)pyridin-3-yl)sulfonyl)-3,4-dihydro-2H-benzo[b][1,4]oxazin-2-yl)propanoate] | < 500 nM | 500 to 5000 nM |  |  |  |  | 
10 | COc1cc(S(=O)(=O)N2CCCc3ccc(OCc4c(Cl)cccc4Cl)cc32)ccc1F [Example 25P, 7-((2,6-dichlorobenzyl)oxy)-1-((4-fluoro-3-methoxyphenyl)sulfonyl)-1,2,3,4-tetrahydroquinoline] | < 500 nM | < 500 nM |  |  |  |  | 
11 | C/C(=C\c1ccc2c(c1)N(S(=O)(=O)c1cccc(C(F)(F)F)c1)C[C@H](O)C2)c1c(F)cccc1Cl [Example 162, (R,E)-7-(2-(2-Chloro-6-fluorophenyl)prop-1-en-1-yl)-1-((3-(trifluoromethyl)phenyl)sulfonyl)-1,2,3,4-tetrahydroquinolin-3-ol] |  |  | < 500 nM | < 500 nM | *** (a value in the range of greater than 150 to 200) | ** (a value in the range of greater than 90 to 150) | 
12 | Cc1ccc(F)c(/C=C/c2ccc3c(c2)N(S(=O)(=O)c2cccc(C(F)(F)F)c2)C[C@H](CCC(=O)O)O3)n1 [Example 89CG, (S,E)-3-(6-(2-(3-fluoro-6-methylpyridin-2-yl)vinyl)-4-((3-(trifluoromethyl)phenyl)sulfonyl)-3,4-dihydro-2H-benzo[b][1,4]-oxazin-2-yl)propanoic acid] | < 500 nM | 5000 to 10000 nM |  |  |  |  | 
13 | C/C(=C\c1ccc2c(c1)N(S(=O)(=O)c1cccc(C(F)(F)F)c1)C[C@@H](N)C2)c1c(F)cccc1Cl [Example 166, (S,E)-7-(2-(2-Chloro-6-fluorophenyl)prop-1-en-1-yl)-1-((3-(trifluoromethyl)phenyl)sulfonyl)-1,2,3,4-tetrahydroquinolin-3-amine] |  |  | < 500 nM | 500 to 5000 nM | *** (a value in the range of greater than 150 to 200) | ** (a value in the range of greater than 90 to 150) | 
14 | CCOc1nn(CC)cc1S(=O)(=O)N1C[C@H](CCC(=O)O)Oc2ccc(/C=C/c3c(Cl)cccc3C(C)(F)F)cc21 [Example 89FE, (S,E)-3-(6-(2-chloro-6-(1,1-difluoroethyl)styryl)-4-((3-ethoxy-1-ethyl-1H-pyrazol-4-yl)sulfonyl)-3,4-dihydro-2H-benzo[b][1,4]oxazin-2-yl)propanoic acid] | < 500 nM | < 500 nM |  |  |  |  | 
15 | O=C(O)CC[C@H]1CN(S(=O)(=O)c2cccc(C(F)(F)F)c2)c2cc(CC3CCCCC3)ccc2O1 [Example 93, (S)-3-(6-(Cyclohexylmethyl)-4-((3-(trifluoromethyl)phenyl)sulfonyl)-3,4-dihydro-2H-benzo[b][1,4]oxazin-2-yl)propanoic acid] | < 500 nM | 500 to 5000 nM |  |  |  |  | 
16 | CCC(=Cc1ccc2c(c1)N(S(=O)(=O)c1cccc(C(F)(F)F)c1)C[C@H](CCCC(=O)O)O2)CC [Example 195F, (S)-4-(6-(2-ethylbut-1-en-1-yl)-4-((3-(trifluoromethyl)phenyl)-sulfonyl)-3,4-dihydro-2H-benzo[b][1,4]oxazin-2-yl)butanoic acid] |  |  |  |  |  |  | EC50 [1, 5]: < 500 nM; EC50 [2, 6]: < 500 nM
17 | C/C(=C\c1ccc2c(c1)N(S(=O)(=O)c1cccc(C(F)(F)F)c1)C[C@@H](O)C2)c1c(F)cccc1Cl [Example 161, (S,E)-7-(2-(2-Chloro-6-fluorophenyl)prop-1-en-1-yl)-1-((3-(trifluoromethyl)phenyl)sulfonyl)-1,2,3,4-tetrahydroquinolin-3-ol] |  |  | < 500 nM | < 500 nM | ** (a value in the range of greater than 90 to 150) | ** (a value in the range of greater than 90 to 150) | 
18 | O=C(O)CC[C@H]1CN(S(=O)(=O)c2cccc(C(F)(F)F)c2)c2cc(C3=CCCCC3)ccc2O1 [Example 193, (S)-3-(6-(cyclohex-1-en-1-yl)-4-((3-(trifluoromethyl)phenyl)sulfonyl)-3,4-dihydro-2H-benzo[b][1,4]oxazin-2-yl)propanoic acid] |  |  |  |  |  |  | EC50 [1, 5]: < 500 nM; EC50 [2, 6]: < 500 nM
19 | O=C(O)CC[C@H]1CN(S(=O)(=O)c2cc(Cl)cnc2OCCO)c2cc(/C=C/c3c(F)cccc3Cl)ccc2O1 [Example 89AL, (S,E)-3-(4-((5-chloro-2-(2-hydroxyethoxy)pyridin-3-yl)sulfonyl)-6-(2-chloro-6-fluorostyryl)-3,4-dihydro-2H-benzo[b][1,4]oxazin-2-yl)propanoic acid] | < 500 nM | 500 to 5000 nM |  |  |  |  | 
20 | CCOc1nn(CC)cc1S(=O)(=O)N1C[C@H](CCC(=O)O)Oc2ccc(/C=C/c3c(Cl)cccc3C(F)F)cc21 [Example 89EH, (S,E)-3-(6-(2-chloro-6-(difluoromethyl)styryl)-4-((3-ethoxy-1-ethyl-1H-pyrazol-4-yl)sulfonyl)-3,4-dihydro-2H-benzo[b][1,4]oxazin-2-yl)propanoic acid] | < 500 nM | < 500 nM |  |  |  |  | 
